In PubChem BioAssay AID330 (DTP/NCI, 2004):
Several values for one entry are separate records, joined by “and”; a condition that tells them apart may be missing. Equal entries are not always repeated. Inconclusive results and toxic doses are left out. How the source made its calls: active means survival T/C of 150% or more; inactive means T/C below 125% in these data.

Tested on: P388 leukemia ip, CD2F1 mice, survival T/C
Assay: NCI In Vivo Anticancer Drug Screen. Data for tumor model P388 Leukemia (intraperitoneal) in CD2F1 (CDF1) mice
Conditions: endpoint: median survival time, higher = longer survival
How it was run: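 Mice carrying the transplanted tumor received test compound or vehicle. Survival was recorded in each group, and the value is the treated-group measurement divided by that of the vehicle-treated control group.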

[1] = dose: 50.0 mg/kg/injection, schedule: Q01DX005 (ip), vehicle: saline with Tween-80
[2] = dose: 100.0 mg/kg/injection, schedule: Q01DX005 (ip), vehicle: saline with Tween-80
[3] = dose: 200.0 mg/kg/injection, schedule: Q01DX005 (ip), vehicle: saline with Tween-80
[4] = dose: 25.0 mg/kg/injection, schedule: Q01DX005 (ip), vehicle: Klucel (hydroxypropylcellulose) (HPC)
[5] = dose: 12.5 mg/kg/injection, schedule: Q04DX003 (ip), vehicle: saline with Tween-80
[6] = dose: 50.0 mg/kg/injection, schedule: Q04DX003 (ip), vehicle: saline with Tween-80
[7] = dose: 100.0 mg/kg/injection, schedule: Q01DX001 (ip), vehicle: saline with Tween-80
[8] = dose: 200.0 mg/kg/injection, schedule: Q01DX001 (ip), vehicle: saline with Tween-80

Measured: T/C

CCOC(=O)Nc1ccc(OCC)cc1
inactive: dose: 100.0 mg/kg/injection, schedule: Q04DX003 (ip), vehicle: Klucel (hydroxypropylcellulose) (HPC) 107 % of control | dose: 200.0 mg/kg/injection, schedule: Q04DX003 (ip), vehicle: Klucel (hydroxypropylcellulose) (HPC) 100 % of control | dose: 400.0 mg/kg/injection, schedule: Q04DX003 (ip), vehicle: Klucel (hydroxypropylcellulose) (HPC) 92 % of control

O=C(CCCCCCCCc1cccc2c1OCO2)c1c(O)cccc1O
inactive: dose: 2.0 mg/kg/injection, schedule: Q01DX009 (ip), vehicle: Klucel (hydroxypropylcellulose) (HPC) 103 % of control | dose: 4.0 mg/kg/injection, schedule: Q01DX009 (ip), vehicle: Klucel (hydroxypropylcellulose) (HPC) 95 % of control | dose: 8.0 mg/kg/injection, schedule: Q01DX009 (ip), vehicle: Klucel (hydroxypropylcellulose) (HPC) 109 % of control | dose: 16.0 mg/kg/injection, schedule: Q01DX009 (ip), vehicle: Klucel (hydroxypropylcellulose) (HPC) 105 % of control

Cn1c(Br)c(C=O)c2ccccc21
inactive: dose: 100.0 mg/kg/injection, schedule: Q01DX001 (ip), vehicle: Klucel (hydroxypropylcellulose) (HPC) 100 % of control | dose: 200.0 mg/kg/injection, schedule: Q01DX001 (ip), vehicle: Klucel (hydroxypropylcellulose) (HPC) 102 % of control | dose: 400.0 mg/kg/injection, schedule: Q01DX001 (ip), vehicle: Klucel (hydroxypropylcellulose) (HPC) 105 % of control

COc1ccc2nc(-c3ccccc3)cc(C(=O)/C=C/c3ccc(N(C)C)cc3)c2c1
inactive: [1] 89 % of control | [2] 86 % of control | [3] 89 % of control

CC(C)(SSC(C)(C)C1NC(=O)NC1=O)C1NC(=O)NC1=O (stereo not given)
inactive: dose: 6.25 mg/kg/injection, schedule: Q01DX005 (ip), vehicle: Klucel (hydroxypropylcellulose) (HPC) 102 % of control | dose: 12.5 mg/kg/injection, schedule: Q01DX005 (ip), vehicle: Klucel (hydroxypropylcellulose) (HPC) 99 % of control | [4] 98 % of control

CN(C)c1ccc(C(N)=O)cn1
inactive: dose: 1.56 mg/kg/injection, schedule: Q01DX009 (ip), vehicle: saline with Tween-80 109 % of control | dose: 6.25 mg/kg/injection, schedule: Q01DX009 (ip), vehicle: saline with Tween-80 90 % of control | [5] 109 % of control | dose: 25.0 mg/kg/injection, schedule: Q04DX003 (ip), vehicle: saline with Tween-80 118 % of control | [6] 118 % of control

O=C1C2CC(CN3CCCCC23)C2CCCCN12 (stereo not given)
inactive: dose: 6.2 mg/kg/injection, schedule: Q01DX007 (ip), vehicle: carboxymethylcellulose (CMC) 100 % of control | dose: 12.5 mg/kg/injection, schedule: Q01DX007 (ip), vehicle: carboxymethylcellulose (CMC) 91 % of control | dose: 25.0 mg/kg/injection, schedule: Q01DX007 (ip), vehicle: carboxymethylcellulose (CMC) 91 % of control | dose: 37.5 mg/kg/injection, schedule: Q01DX009 (ip), vehicle: saline 95 % of control | dose: 75.0 mg/kg/injection, schedule: Q01DX009 (ip), vehicle: saline 102 % of control | dose: 150.0 mg/kg/injection, schedule: Q01DX009 (ip), vehicle: saline 101 % of control

CC(=O)OC(C[Se]c1ccccc1)OC(C)=O
inactive: dose: 37.5 mg/kg/injection, schedule: Q01DX001 (ip), vehicle: saline with Tween-80 105 % of control | dose: 75.0 mg/kg/injection, schedule: Q01DX001 (ip), vehicle: saline with Tween-80 99 % of control and 105 % of control

COc1cccc(CN2CCNCC2)c1
inactive: dose: 6.25 mg/kg/injection, schedule: Q01DX009 (ip), vehicle: water 90 % of control | dose: 12.5 mg/kg/injection, schedule: Q01DX009 (ip), vehicle: water 94 % of control | dose: 25.0 mg/kg/injection, schedule: Q01DX009 (ip), vehicle: water 93 % of control | dose: 50.0 mg/kg/injection, schedule: Q01DX009 (ip), vehicle: water 94 % of control

COc1c(CCl)cc(-c2sc3ccccc3c(=O)c2CCl)cc1CCl
inactive: dose: 25.0 mg/kg/injection, schedule: Q01DX005 (ip), vehicle: saline with Tween-80 106 % of control and 93 % of control | [1] 100 % of control and 114 % of control and 97 % of control | [2] 100 % of control and 106 % of control | [3] 108 % of control and 124 % of control

O=C1c2cccc(Cl)c2Cc2c(Cl)cccc21
inactive: [7] 105 % of control | [8] 99 % of control | dose: 400.0 mg/kg/injection, schedule: Q01DX001 (ip), vehicle: saline with Tween-80 92 % of control

Nc1nc(N)c2c(ccc3nc(-c4ccccc4)c(-c4ccccc4)nc32)n1
inactive: [7] 87 % of control | [8] 90 % of control

CCOC(=O)CNC(=O)Sc1ccc(C(C)(C)C)cc1C
inactive: dose: 50.0 mg/kg/injection, schedule: Q01DX005 (ip), vehicle: saline + Tween-80 + alcohol 100 % of control (2×) and 107 % of control | dose: 100.0 mg/kg/injection, schedule: Q01DX005 (ip), vehicle: saline + Tween-80 + alcohol 110 % of control and 111 % of control and 118 % of control | dose: 200.0 mg/kg/injection, schedule: Q01DX005 (ip), vehicle: saline + Tween-80 + alcohol 114 % of control and 120 % of control | dose: 400.0 mg/kg/injection, schedule: Q01DX005 (ip), vehicle: saline + Tween-80 + alcohol 114 % of control

O=S1(=O)CS/C(=N\C(=S)N(c2ccccc2)c2ccccc2)N1c1ccccc1
inactive: dose: 3.13 mg/kg/injection, schedule: Q04DX003 (ip), vehicle: saline with Tween-80 106 % of control | dose: 6.25 mg/kg/injection, schedule: Q04DX003 (ip), vehicle: saline with Tween-80 99 % of control | [5] 94 % of control and 95 % of control | [6] 86 % of control | dose: 200.0 mg/kg/injection, schedule: Q04DX003 (ip), vehicle: saline with Tween-80 93 % of control

CCN(CC)CCOC(=O)c1c(C)oc2cc3c(C(=O)OCCN(CC)CC)c(C)oc3cc12
inactive: [4] 98 % of control | dose: 50.0 mg/kg/injection, schedule: Q01DX005 (ip), vehicle: Klucel (hydroxypropylcellulose) (HPC) 92 % of control | dose: 100.0 mg/kg/injection, schedule: Q01DX005 (ip), vehicle: Klucel (hydroxypropylcellulose) (HPC) 94 % of control | dose: 200.0 mg/kg/injection, schedule: Q01DX005 (ip), vehicle: Klucel (hydroxypropylcellulose) (HPC) 113 % of control

CCOC(=O)CC1(C)NCCS1 (stereo not given)
inactive: dose: 50.0 mg/kg/injection, schedule: Q01DX009 (ip), vehicle: saline 96 % of control | dose: 100.0 mg/kg/injection, schedule: Q01DX009 (ip), vehicle: saline 99 % of control | dose: 200.0 mg/kg/injection, schedule: Q01DX009 (ip), vehicle: saline 96 % of control

CN1c2ccc(Cl)cc2C(=O)NC1c1ccc([N+](=O)[O-])s1 (stereo not given)
inactive: dose: 50.0 mg/kg/injection, schedule: Q01DX009 (ip), vehicle: saline with Tween-80 106 % of control | dose: 100.0 mg/kg/injection, schedule: Q01DX009 (ip), vehicle: saline with Tween-80 108 % of control | dose: 200.0 mg/kg/injection, schedule: Q01DX009 (ip), vehicle: saline with Tween-80 113 % of control | dose: 400.0 mg/kg/injection, schedule: Q01DX009 (ip), vehicle: saline with Tween-80 115 % of control

c1cc[n+]2cc3cc4c(cc3cc2c1)OCO4
inactive: dose: 3.13 mg/kg/injection, schedule: Q01DX009 (ip), vehicle: distilled water + Tween-80 103 % of control and 107 % of control | dose: 6.25 mg/kg/injection, schedule: Q01DX009 (ip), vehicle: distilled water + Tween-80 119 % of control and 123 % of control | dose: 25.0 mg/kg/injection, schedule: Q01DX009 (ip), vehicle: distilled water + Tween-80 120 % of control and 94 % of control
